Among the data in publication PMC12406721, “Chronic integrated stress response causes dysregulated cholesterol synthesis in white matter disease” (JCI Insight, 2025) are EC50 and Tm values, retold here.

The target of one assay is T1, eIF2B (Mus musculus, UniProt Q61749+Q99LD9).
T1 construct: gene Eif2b2; endogenous complex in MIN-6 cells or their lysate; decamer α2β2δ2(γε)2; alpha subunit strongly depleted in N208Y cells (mostly octamer β2δ2γ2ε2); with Translation initiation factor eIF2B subunit alpha; Translation initiation factor eIF2B subunit gamma; Translation initiation factor eIF2B subunit epsilon
T1 sequence (Q99LD9 whole entry): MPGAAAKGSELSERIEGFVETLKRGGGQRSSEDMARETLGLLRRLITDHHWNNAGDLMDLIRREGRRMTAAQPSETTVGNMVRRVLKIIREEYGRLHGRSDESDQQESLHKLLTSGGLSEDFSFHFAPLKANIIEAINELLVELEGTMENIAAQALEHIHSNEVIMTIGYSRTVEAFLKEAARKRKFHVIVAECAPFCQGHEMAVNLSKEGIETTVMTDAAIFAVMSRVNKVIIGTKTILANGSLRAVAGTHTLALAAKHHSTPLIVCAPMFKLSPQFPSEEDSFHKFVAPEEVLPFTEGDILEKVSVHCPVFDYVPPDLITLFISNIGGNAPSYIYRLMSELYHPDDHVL
T1 sequence (Q61749 2-524): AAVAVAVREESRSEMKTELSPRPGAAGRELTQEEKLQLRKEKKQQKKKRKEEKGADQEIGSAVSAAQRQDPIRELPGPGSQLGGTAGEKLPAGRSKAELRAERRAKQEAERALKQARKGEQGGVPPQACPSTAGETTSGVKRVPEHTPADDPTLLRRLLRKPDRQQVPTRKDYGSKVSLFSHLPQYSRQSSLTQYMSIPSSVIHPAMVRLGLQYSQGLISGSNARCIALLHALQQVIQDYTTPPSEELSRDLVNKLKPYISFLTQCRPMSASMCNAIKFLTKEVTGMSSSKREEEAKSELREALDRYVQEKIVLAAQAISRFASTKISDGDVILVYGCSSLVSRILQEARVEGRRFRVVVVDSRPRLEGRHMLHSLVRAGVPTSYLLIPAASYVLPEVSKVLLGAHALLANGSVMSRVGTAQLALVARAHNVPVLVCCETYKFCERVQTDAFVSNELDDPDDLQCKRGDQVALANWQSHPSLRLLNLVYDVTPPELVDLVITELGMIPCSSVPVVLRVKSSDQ
T1 sequence (Q99LC8 whole entry N208Y partner): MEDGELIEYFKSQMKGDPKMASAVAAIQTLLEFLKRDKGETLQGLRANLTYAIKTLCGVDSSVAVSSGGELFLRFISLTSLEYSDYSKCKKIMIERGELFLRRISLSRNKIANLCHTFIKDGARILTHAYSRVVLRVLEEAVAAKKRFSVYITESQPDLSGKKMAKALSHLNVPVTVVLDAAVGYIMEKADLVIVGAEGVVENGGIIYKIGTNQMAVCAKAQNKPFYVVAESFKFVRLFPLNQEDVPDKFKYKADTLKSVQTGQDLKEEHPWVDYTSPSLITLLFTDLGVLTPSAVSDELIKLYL
T1 sequence (Q8CHW4 whole entry partner): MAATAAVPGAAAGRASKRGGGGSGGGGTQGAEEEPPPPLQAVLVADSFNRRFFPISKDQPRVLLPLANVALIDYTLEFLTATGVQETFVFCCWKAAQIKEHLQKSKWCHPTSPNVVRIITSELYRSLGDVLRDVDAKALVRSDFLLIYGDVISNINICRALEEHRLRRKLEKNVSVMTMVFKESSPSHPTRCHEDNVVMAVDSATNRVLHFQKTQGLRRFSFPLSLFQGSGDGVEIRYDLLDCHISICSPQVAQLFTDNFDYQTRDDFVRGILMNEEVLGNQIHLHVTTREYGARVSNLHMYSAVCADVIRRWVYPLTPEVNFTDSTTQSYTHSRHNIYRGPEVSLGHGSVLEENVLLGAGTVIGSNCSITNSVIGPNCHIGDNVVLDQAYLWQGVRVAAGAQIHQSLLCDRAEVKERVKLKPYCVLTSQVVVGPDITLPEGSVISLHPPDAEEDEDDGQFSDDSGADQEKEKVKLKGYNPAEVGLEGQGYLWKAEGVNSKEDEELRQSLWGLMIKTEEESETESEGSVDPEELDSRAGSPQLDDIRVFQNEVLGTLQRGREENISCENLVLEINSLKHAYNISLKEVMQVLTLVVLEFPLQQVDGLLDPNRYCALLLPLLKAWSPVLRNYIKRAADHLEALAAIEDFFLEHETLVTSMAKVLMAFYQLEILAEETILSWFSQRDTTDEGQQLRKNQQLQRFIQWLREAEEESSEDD
Put plainly: 2BAct dose response in N208Y cells (read-out only in supplement). The assay is classed as cell-based. The settings on record: activator, cell line not restated, read-out not told in main text.

In a further assay the target is T2, eIF2B-α (Homo sapiens, UniProt Q14232).
T2 construct: gene EIF2B1; purified recombinant alpha subunit, homodimer
T2 sequence (Q14232 1-305): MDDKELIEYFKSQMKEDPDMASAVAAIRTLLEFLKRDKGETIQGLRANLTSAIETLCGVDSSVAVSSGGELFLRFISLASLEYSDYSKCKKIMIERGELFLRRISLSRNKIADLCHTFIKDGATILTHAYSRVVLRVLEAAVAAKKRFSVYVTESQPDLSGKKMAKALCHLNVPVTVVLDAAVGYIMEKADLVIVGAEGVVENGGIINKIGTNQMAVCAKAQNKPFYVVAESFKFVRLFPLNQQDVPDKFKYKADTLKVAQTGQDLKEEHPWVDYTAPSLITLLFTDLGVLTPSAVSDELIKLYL
Briefly: NanoDSF thermal unfolding. The assay is classed as binding. Conditions: stabilises; concentration not told in main text.

In the case of `O=C(COc1ccc(Cl)c(F)c1)NC12CC(NC(=O)c3cnc(C(F)F)cn3)(C1)C2` [2BAct], the concentration for a half-maximal effect (EC50) on eIF2B came out at 27.8 nM. Take `O=P(O)(O)OC[C@H]1OC(O)(CO)[C@@H](O)[C@@H]1O` (some centres unmarked) [fructose-6-phosphate]: at eIF2B-α, the Tm result is recorded as “addition of F6P further increased the stability of WT eIF2B-α”.
